According to US4631270A, “Therapeutically useful pseudopeptides, compositions containing the same and methods of preparation and use” (priority 1985, dated 1986):
Where two headings read alike, the source gives them in different places.

What was measured:
[1] = system: repair-deficient strains of Bacillus subtilis; assay: Mutagenicity test, variation of the Ames test (overall result); assay type: cell-based; details: results of Table 2b
Protocol: (§1) The mutagenicity of Gly .PSI. Leu and Gly .PSI. Ile was examined by a variation of the Ames test using repair-deficient strains of Bacillus subtilis.
(§2) The specific procedures by which these tests were conducted are described in the following references: […]

[2] = system: Wild type; assay: Mutagenicity test, growth inhibition, wild type strain; assay type: cell-based, Bacillus subtilis; details: concentration 0.1 M
Protocol: as §1, §2

[3] = system: MC-1; assay: Mutagenicity test, growth inhibition, strain MC-1; assay type: cell-based, Bacillus subtilis; details: concentration 0.1 M
Protocol: as §1, §2

[4] = system: Hcr-9; assay: Mutagenicity test, growth inhibition, strain Hcr-9; assay type: cell-based, Bacillus subtilis
Protocol: as §1, §2

[5] = system: FB-13; assay: Mutagenicity test, growth inhibition, strain FB-13; assay type: cell-based, Bacillus subtilis; details: concentration 0.1 M
Protocol: as §1, §2

[6] = system: Pol A; assay: Mutagenicity test, growth inhibition, strain Pol A; assay type: cell-based, Bacillus subtilis; details: concentration 0.1 M
Protocol: as §1, §2

[7] = rapid destruction by proteolysis; cited from earlier work
[8] = system: Swiss Wistar mice; assay: Acute toxicity and weight gain of Swiss Wistar mice injected I.P.; assay type: in vivo; details: dose levels 44-432 mg/Kg, five mice per dose level
Protocol: One example of the low toxicity of the compounds of this invention is the results achieved with mice on treatment with Gly .PSI. Leu. In the test Swiss Wistar mice were injected I.P. with Gly .PSI. Leu at the dose levels indicated below. Five mice were tested at each dose level. […] The behavior of the animals was observed closely for 7 days after injection.

[9] = system: methionine adenosyl transferase (MAT)
Source text: Possible mutagenic effects of pseudodipeptides were examined two ways. One possible route for a metabolic complication is via the action of methionine adenosyl transferase (MAT). Ethionine (which contains a thiomethylene linkage) is known to be both a carcinogen and a substrate for MAT.

CC[C@H](C)[C@H](SCCN)C(=O)O [Gly .PSI. Ile]
mutagenicity [1]: neither Gly .PSI. Leu nor Gly .PSI. Ile behaves as a mutagen | Growth Inhibition of Bacterial Strains in mm, Wild type [2]: 0 mm | Growth Inhibition of Bacterial Strains in mm, MC-1 [3]: 0 mm | Growth Inhibition of Bacterial Strains in mm, Hcr-9 [4]: 0 mm | Growth Inhibition of Bacterial Strains in mm, FB-13 [5]: 0 mm | Growth Inhibition of Bacterial Strains in mm, Pol A [6]: 0 mm

pGlu-His-Trp-Ser-Tyr-Gly-Leu-Arg-Pro-Gly-NH2 [Luteinizing hormone-releasing hormone]
biological half-life [7]: 2 min.

CC(C)CC(SCCN)C(=O)O (centres unmarked) [Gly .PSI. Leu, pseudoglycylleucine]
signs of acute toxicity [8]: In no case did any of the mice show any signs of acute toxicity | Counts/Min transferred ([9]; Expt I, concentration 12 mM, None = 15,760): 16,620 Counts/Min | Counts/Min transferred ([9]; Expt II, concentration 80 mM, None = 7,380): 7,990 Counts/Min | effect on MAT activity ([9]; possible substrate or competitive inhibitor of MAT): neither Gly .PSI. Leu nor Gly .PSI. D-Leu has a measurable effect on MAT activity | mutagenicity [1]: neither Gly .PSI. Leu nor Gly .PSI. Ile behaves as a mutagen | Growth Inhibition of Bacterial Strains in mm, Wild type [2]: 0 mm | Growth Inhibition of Bacterial Strains in mm, MC-1 [3]: 0 mm | Growth Inhibition of Bacterial Strains in mm, Hcr-9 ([4]; concentration 0.1 M): 0 mm | Growth Inhibition of Bacterial Strains in mm, FB-13 [5]: 0 mm | Growth Inhibition of Bacterial Strains in mm, Pol A [6]: 0 mm
